Paper PMC12040169 (PLOS Biology, 2025)

Assay: in vitro
Details: human, hela cells, % viability

SMILES | viability at 28.5 h, 10 µM [%]
CC(=O)c1ccc(NC(=O)COn2nnc3ccc([N+](=O)[O-])cc32)cc1 [CBK266980] | 101
Cc1[nH]c2ccccc2c1Cc1n[nH]c(=S)n1Cc1ccccc1 [CBK266985] | 99.5
COc1ccc(OCC(=O)Nc2ccc3c(c2)nc2n3CCN(Cc3ccccc3)C2)cc1 [CBK266989] | 97.6
Cc1ccc(-c2c(C(=O)NNC(=S)NCc3ccco3)csc2C)cc1 [CBK266992] | 96.3
CN(C)Cc1cc(C(C)(C)C)cc(CN(C)C)c1O [CBK266994] | 98.4
Cc1c(Cc2ccccc2)c(=O)oc2c(CN3CCCC(C)C3)c(O)ccc12 (stereo not drawn) [CBK266995] | 93.2
CC(=O)c1cccc(NC(=O)Nc2cccc(S(=O)(=O)N3CCOCC3)c2)c1 [CBK266996] | 89.9
O=c1[nH]c2ccc(S(=O)(=O)Nc3ccc(-c4ccccc4)cc3)cc2[nH]1 [CBK266999] | 99.8
O=C(O)C(CC(=O)N1CCOCC1)NCc1ccccc1 (stereo not drawn) [CBK267000] | 100
Cc1cc(C)c(NS(=O)(=O)c2ccc(NC(=S)Nc3ccc(S(N)(=O)=O)cc3)cc2)c(C)c1 [CBK267005] | 94.2
CC(C)(O)C#Cc1ccc(C(=O)N2CCN(C/C=C/c3ccccc3)CC2)s1 [CBK267007] | 99.5
O=C(CC(C(=O)O)N1CCOCC1)Nc1ccccc1 (stereo not drawn) [CBK267008] | 111
Cc1nnc(N2C(=O)c3oc4ccc(Cl)cc4c(=O)c3C2c2cccnc2)s1 (stereo not drawn) [CBK267010] | 105
COc1cc([N+](=O)[O-])cc2cc(C(=O)NNC(=O)c3ccccc3Cl)c(=O)oc12 [CBK267011] | 92.8
Cc1cc(C)c(C)c(S(=O)(=O)Nc2ccc(O)c(Sc3nc[nH]n3)c2)c1C [CBK267012] | 66.6
CC(C)(C)NS(=O)(=O)c1ccc(NC(=O)COc2ccc3ccccc3c2Br)cc1 [CBK267015] | 96.5
O=C(CSCc1ccc(Cl)cc1)Nc1ccc(S(=O)(=O)N2CCCCCC2)cc1 [CBK267017] | 112
COc1ccc(NC(=O)Nc2nn(Cc3c(F)cccc3Cl)cc2Cl)cc1OC [CBK267019] | 89.3
NS(=O)(=O)c1ccc(NC(=S)Nc2nn(Cc3ccc(Cl)cc3Cl)cc2Cl)cc1 [CBK267020] | 90.6
S=C(NCc1ccco1)Nc1nn(Cc2ccc(Cl)cc2Cl)cc1Cl [CBK267021] | 80.7
Cc1cc(C)nc(Nc2n[nH]c(Cc3ccccc3)n2)n1 [CBK267023] | 96.3

SMILES | viability at 28.5 h, 10 µM [%]
NS(=O)(=O)c1ccc(NC(=S)NNC(=O)C2c3ccccc3Oc3ccccc32)cc1 [CBK267024] | 99.2
CCN1CCN(C(=O)c2ccccc2N(Cc2ccccc2)S(C)(=O)=O)CC1 [CBK267028] | 101
Cc1nn(C)c(C)c1CN1CCN(C(=S)Nc2ccc(S(N)(=O)=O)cc2)CC1 [CBK267030] | 94.1
O=C(Nc1ccc2c(c1)nc1n2CCN(Cc2ccccc2)C1)NC1CCCCC1 [CBK267033] | 109
O=C(Cn1cc(/C=C/c2[nH]c(=O)[nH]c(=O)c2[N+](=O)[O-])c2ccccc21)Nc1ccc2c(c1)OCO2 [CBK267036] | 80.8
CC(=O)c1ccc(-c2ccc(/C=C\c3[nH]c(=O)[nH]c(=O)c3[N+](=O)[O-])o2)cc1 [CBK267038] | 90.7
COC(=O)c1c(NC(=S)NCc2ccc(S(N)(=O)=O)cc2)sc2c1CCC(C)C2 (stereo not drawn) [CBK267039] | 97.6
O=C(CCc1ccc(O)c(O)c1)NNC(=S)Nc1ccc(F)cc1F [CBK267041] | 114
O=C(Nc1cccc(C(F)(F)F)c1)Nc1cccc(S(=O)(=O)N2CCOCC2)c1 [CBK267043] | 99
Cc1cc(=O)oc2cc(NC(=S)N3CCN(C/C=C/c4ccccc4)CC3)ccc12 [CBK267045] | 92
CN1CCN(C(=O)CN(C)S(=O)(=O)c2ccc3ccccc3c2)CC1 [CBK267053] | 96.4
COC(=O)c1c(NC(=S)NCc2ccccn2)sc(C(=O)N(C)C)c1C [CBK267055] | 98.8
CC(NS(=O)(=O)c1ccc(CCC(=O)O)cc1)c1ccccc1 (stereo not drawn) [CBK267058] | 88.1
O=C(NCc1ccc2c(c1)OCO2)C1CN(S(=O)(=O)c2ccccc2)CCN1S(=O)(=O)c1ccccc1 (stereo not drawn) [CBK267059] | 102
COc1ccccc1CNC(=O)c1ccc(Cl)c(S(=O)(=O)N2CCOCC2)c1 [CBK267060] | 69.3
Cc1ccc(-c2c(C(=O)NNC(=S)NCC3CCCO3)csc2C)cc1 (stereo not drawn) [CBK267062] | 86.6
COc1ccc(Cl)cc1NC(=S)NCCn1cc(Cl)cn1 [CBK267063] | 89.8
COc1cc([N+](=O)[O-])ccc1NC(=S)NCc1ccc(S(N)(=O)=O)cc1 [CBK267067] | 100
Cc1ccc(NC(=O)CC(C(=O)O)N(C)C)cc1 (stereo not drawn) [CBK267068] | 81.7
Cc1nn(C)cc1CN1CCN(C(=S)NCCc2ccccc2)CC1 [CBK267069] | 98.4
CCOC(=O)c1c(NC(=S)N2CCN(S(C)(=O)=O)CC2)sc(C)c1-c1ccccc1 [CBK267072] | 98

SMILES | viability at 28.5 h, 10 µM [%]
COC(=O)c1c(NC(=S)NNC(=O)c2nn(C)cc2I)sc2c1CCC2 [CBK267074] | 97.7
O=S(=O)(c1ccc(Cl)cc1)N1CCN(S(=O)(=O)N2CCCCC2)CC1 [CBK267075] | 96.1
Cc1cc(C)nc(Nc2n[nH]c(-c3ccc(NC(=O)Nc4ccccc4)cc3)n2)n1 [CBK267076] | 92.7
Cc1cc(CNC(=S)Nc2ccc(S(N)(=O)=O)cc2)nn1C [CBK267077] | 98.7
COC(=O)c1sc(NC(=S)Nc2ccn(C)n2)c(C(=O)OC)c1C [CBK267078] | 99.5
Cc1[nH]c2ccc(C(=O)O)cc2c1CC(=O)O [CBK267080] | 96.3
Cc1cc(C)c(S(=O)(=O)NC(CC(=O)O)c2ccccc2)cc1C (stereo not drawn) [CBK267081] | 86.8
S=C(NCc1ccc(-n2cccn2)cc1)NCC1CCCO1 (stereo not drawn) [CBK267083] | 96.7
Cc1ccc([N+](=O)[O-])cc1/C=C(/C#N)c1nc2ccccc2s1 [CBK267085] | 95.4
O=C(CC(C(=O)O)N1CCOCC1)Nc1ccc(Cl)cc1 (stereo not drawn) [CBK267086] | 105
Cc1cc(C)cc(C(=O)NC(=S)Nc2sc(C)c(C)c2C#N)c1 [CBK267089] | 92.1
COC(=O)c1c(NC(=S)NCc2ccccn2)sc2c1CCC2 [CBK267090] | 95.9
COC(=O)c1cc(C)sc1NC(=S)Nc1cnn(Cc2cccc3ccccc23)c1 [CBK267098] | 101
CCc1c(C)c2cc(Cl)c(O)c(CN3CCCC3)c2oc1=O [CBK267099] | 105
COC(=O)c1c(NC(=S)N2CCN(Cc3c(C)nn(C)c3C)CC2)sc2c1CCC(C)C2 (stereo not drawn) [CBK267103] | 94.9
CC(C)(C)OC(=O)NNC(=S)Nc1ccc(S(N)(=O)=O)cc1 [CBK267107] | 100
Cc1ccccc1C(=O)Nc1cccc(NC(=O)c2nc[nH]n2)c1 [CBK267108] | 86.6
c1ccc2c(c1)nc(-c1cscn1)n2CCCCc1nnn[nH]1 [CBK267110] | 93.7
Cc1ccc2oc(-c3cc(NC(=O)Cn4cnc5c(=O)n(C)c(=O)n(C)c54)ccc3O)nc2c1 [CBK267112] | 95.1
CCn1cc(C(=O)O)c(=O)c2cnc(N3CCN(C(=S)NC(=O)C4c5ccccc5Oc5ccccc54)CC3)nc21 [CBK267114] | 91.6
COc1ccc(NC(=O)CC(C(=O)O)N2CCCCC2)cc1 (stereo not drawn) [CBK267115] | 101

SMILES | viability at 28.5 h, 10 µM [%]
O=C(O)CC(NCc1ccccc1)C(=O)Nc1ccccc1Br (stereo not drawn) [CBK267118] | 98
Cc1ccc(C)c(NC(=O)CC2C(=O)N(c3ccccc3)C(=S)N2Cc2ccco2)c1 (stereo not drawn) [CBK267119] | 94.3
Cc1cc(C)nc(Nc2n[nH]c(-c3cccnc3)n2)n1 [CBK267120] | 98
Cc1nn(Cc2c(F)cccc2Cl)c(C)c1NC(=S)Nc1ccc(S(N)(=O)=O)cc1 [CBK267121] | 101
CC(=O)Nc1ccc(S(=O)(=O)NCc2ccc3[nH]c4c(c3c2)CCCC4)cc1 [CBK267122] | 87.1
O=C(Oc1ccc(N(C(=O)c2ccncc2)S(=O)(=O)c2cccc3cccnc23)cc1)c1ccncc1 [CBK267123] | 89.5
CC(C)N(Cc1nc(-c2ccc(Cl)cc2)no1)C(=O)COc1ccc(Br)cc1Cl [CBK267126] | 111
O=C(O)CSc1nc2ccccc2n1CC(=O)O [CBK267128] | 102
FC(F)(F)c1ccccc1NC(=S)Nc1ncn(Cc2ccc(Cl)c(Cl)c2)n1 [CBK267130] | 87.1
Cc1cc(C)nc(Nc2n[nH]c(-c3ccc(N)cc3)n2)n1 [CBK267131] | 99.5
CCN1CCN(C(=O)c2ccc(CN(c3ccc(C)c(C)c3)S(C)(=O)=O)cc2)CC1 [CBK267132] | 92.6
Cc1nn2c(-c3ccc(NC(=O)c4cccs4)cc3)nnc2c2ccccc12 [CBK267134] | 89.6
CCn1c2ccccc2n2c(SCCC(=O)O)nnc12 [CBK267135] | 102
O=C(CN(c1ccccc1)S(=O)(=O)c1ccccc1[N+](=O)[O-])Nc1ccc(C(F)(F)F)cc1 [CBK267137] | 64.6
Cc1cc(=O)oc2cc(NC(=S)NNC(=O)c3ccc4c(c3)c(C)c(C)n4Cc3ccccc3)ccc12 [CBK267138] | 89.6
CCOc1ccccc1NC(=O)Nc1ncccc1C [CBK267140] | 85.3
O=C(O)CC(NCc1ccccc1)C(=O)Nc1ccc(Cl)cc1 (stereo not drawn) [CBK267141] | 95.4
CC(C)(O)C#Cc1ccc(C(=O)NCCCNC(=O)c2ccc(C#CC(C)(C)O)s2)s1 [CBK267142] | 93.8
CCn1c(COc2cccc(C)c2)nnc1SCC(=O)c1ccccc1 [CBK267143] | 97.4
CSc1nnc(Cc2nnc(SC)n2-c2ccccc2)n1-c1ccccc1 [CBK267145] | 105
Cc1cccnc1Nc1nc(-c2sc(N)nc2C)cs1 [CBK267147] | 90.3
